Experimental data reported in patent US20190134000A1, “COMPOUNDS TO PROMOTE NORMAL PROCESSING OF APP” (Buck Institute for Research on Aging, priority 2016, published 2019).
≈ marks a conversion by molar mass, not a printed value. Like-named read-outs stand apart in the source and are kept apart here.

Columns and labels:
AD model mouse = test: In vivo study of C41 and F03 in an AD model mouse
Description: Panel A: Novel object preference; Panel B: Novel location preference; Panel C: sAPPα.
Panel A: sAPPβ; Panel B: the sAPPα/sAPPβ ratio.
Compounds meeting the initial screening criteria were then subjected to in vivo testing.

5-HT3 = molecular target: T1, 5-HT3 (Homo sapiens, UniProt P46098); test: Target binding 5-HT3
T1 sequence (P46098 24-478): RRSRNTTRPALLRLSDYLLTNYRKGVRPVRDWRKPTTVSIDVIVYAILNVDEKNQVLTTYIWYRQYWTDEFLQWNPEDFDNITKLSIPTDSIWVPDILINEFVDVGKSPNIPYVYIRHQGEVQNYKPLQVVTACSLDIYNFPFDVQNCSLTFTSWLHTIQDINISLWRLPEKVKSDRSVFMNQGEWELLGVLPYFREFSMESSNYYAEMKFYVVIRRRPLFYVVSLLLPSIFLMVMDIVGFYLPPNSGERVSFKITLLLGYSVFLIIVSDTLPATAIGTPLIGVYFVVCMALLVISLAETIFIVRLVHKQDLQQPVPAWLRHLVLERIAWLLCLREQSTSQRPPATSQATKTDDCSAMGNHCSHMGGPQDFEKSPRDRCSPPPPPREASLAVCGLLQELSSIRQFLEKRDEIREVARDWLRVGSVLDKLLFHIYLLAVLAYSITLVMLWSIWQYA

[1] = Acute non-GLP toxicity study, oral 450 mg/kg; assay type: in vivo, rats; conditions: for concentration at 24 h: rat, in vivo
Description: Acute non-GLP toxicity study was performed using an oral dose of 450 mg/kg. At 24 hours post-dosing, brain levels were 2924 ng/g and plasma levels were 115 ng/ml.

S9 stability, mouse = assay type: in vitro ADME
S9 stability, rat = assay type: in vitro ADME
S9 stability, guinea pig = assay type: in vitro ADME
AD model mice = test: Oral efficacy studies in mice; assay type: in vivo
Description: Thus, C41 was identified as a good new chemical entity (NCE) based on the testing. In particular C41 in vitro and in vivo profile met the advancement criteria in SH-SYSY and CHO-7W in vitro screens.

CYP2C9 = CYP2C9 (Homo sapiens, UniProt P11712); test: CYP inhibition screen CYP2C9; assay type: in vitro ADME
Chain of CYP2C9 (P11712 whole entry): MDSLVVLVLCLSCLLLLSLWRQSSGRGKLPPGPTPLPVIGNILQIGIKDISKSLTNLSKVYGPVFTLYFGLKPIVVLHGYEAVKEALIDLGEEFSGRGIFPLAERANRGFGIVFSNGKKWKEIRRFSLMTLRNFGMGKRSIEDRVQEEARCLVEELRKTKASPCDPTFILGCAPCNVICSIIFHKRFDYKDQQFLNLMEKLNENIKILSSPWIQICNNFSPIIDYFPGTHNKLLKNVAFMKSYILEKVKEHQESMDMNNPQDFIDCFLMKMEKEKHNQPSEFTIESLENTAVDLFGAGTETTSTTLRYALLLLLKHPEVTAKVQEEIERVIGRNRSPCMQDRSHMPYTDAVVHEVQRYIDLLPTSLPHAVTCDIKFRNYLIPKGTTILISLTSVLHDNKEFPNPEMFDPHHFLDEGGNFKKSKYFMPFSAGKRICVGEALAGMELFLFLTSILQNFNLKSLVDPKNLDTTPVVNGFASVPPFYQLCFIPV

B254 mice = test: C41 lead confirmation in B254 mice; assay type: in vivo; conditions: 4 weeks oral 4 mkd
Description: FIG. 15 illustrates the result of C41 lead confirmation in B254 mice. Panel A: Novel Location Recognition; Panel B: Novel Object Recognition; Panel C: sAPPα; Panel D: Aβ40; Panel E: Aβ42; Panel F: p-tau/tau.

S9 stability, human = assay type: in vitro ADME
α7 = α7 (Homo sapiens, UniProt P36544); test: Target binding α7
Chain of α7 (P36544 23-502): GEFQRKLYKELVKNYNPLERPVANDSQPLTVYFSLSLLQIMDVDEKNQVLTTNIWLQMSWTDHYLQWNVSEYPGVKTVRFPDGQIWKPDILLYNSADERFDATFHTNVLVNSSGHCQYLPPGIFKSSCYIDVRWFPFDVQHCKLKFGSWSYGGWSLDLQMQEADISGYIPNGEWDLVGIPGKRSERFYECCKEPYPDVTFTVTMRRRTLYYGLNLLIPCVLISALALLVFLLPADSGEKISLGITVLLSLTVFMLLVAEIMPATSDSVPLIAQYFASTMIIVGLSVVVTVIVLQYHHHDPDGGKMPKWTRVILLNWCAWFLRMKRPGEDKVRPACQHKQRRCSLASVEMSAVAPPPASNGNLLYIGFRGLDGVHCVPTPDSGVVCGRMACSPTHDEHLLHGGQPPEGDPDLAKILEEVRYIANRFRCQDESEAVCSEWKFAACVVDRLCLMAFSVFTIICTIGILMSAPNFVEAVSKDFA

S9 stability, monkey = assay type: in vitro ADME

CN1[C@@H]2CC[C@H]1C[C@@H](OC(=O)c1c[nH]c3cc(F)ccc13)C2 [Compound C41, (1R,3R,5S)-8-methyl-8-azabicyclo[3.2.1]octan-3-yl 6-fluoro-1H-indole-3-carboxylate]
Aβ1-42 levels in vivo (AD model mouse): did not change
Aβ40/42 ratio in vivo (AD model mouse): not changed
sAPPα in vivo (AD model mouse): increased significantly
sAPPα/Aβ1-42 ratio in vivo (AD model mouse): not increased
sAPPα/sAPPβ ratio in vivo (AD model mouse): significantly greater increase with C41 than F03
sAPPβ in vivo (AD model mouse): greater decrease in sAPPβ than F03
short-term working object memory (novel object preference) (AD model mouse): approximately 85 % of NTg level
spatial memory, novel location recognition test (AD model mouse): improved spatial memory
solubility (physchem): 80 mM (≈ 24.2 mg/mL)
solubility (physchem; water): 85 mM (≈ 25.7 mg/mL)
Kd (5-HT3): ~3 nM
Target 5-HT3 (5-HT3; target binding): 5 nM
acute toxicity finding ([1]; oral 450 mg/kg, likely due to the corn syrup vehicle): some dilation of the vessels on the surface of the intestine
concentration at 24 h ([1]; po, 450 mg/kg): 115 ng/mL
concentration at 24 h ([1]; oral 450 mg/kg, 24 hours post-dosing, read-out: brain levels): 2920 ng/g
Metabolic Half-Life Mouse S9 (S9 stability, mouse): >60 min
half-life (S9 stability, mouse): > 60 min
half-life (S9 stability, rat): 21.8 min
Metabolic Half-Life Guinea Pig S9 (S9 stability, guinea pig): >60 min
half-life (S9 stability, guinea pig): > 60 min
efficacy in dose-response studies (AD model mice; mice): Efficacy was seen
efficacy in 4-week standard oral study (AD model mice; mice, oral, 4 weeks): Efficacy was seen
efficacy in 12-week study (AD model mice; old AD model mice with advanced pathology): efficacy was seen
IC50 (CYP2C9): > 30 µM
inhibition at 10 µM (CYP2C9; human): 11.4%
inhibition at 30 µM (CYP2C9; human): 21.6%
Aβ40 (B254 mice): trend for Aβ40 and 42 to decrease
Aβ42 (B254 mice): trend for Aβ40 and 42 to decrease
novel location recognition (B254 mice): some improvement
novel object recognition (B254 mice): significant improvement
p-Tau/Tau ratio (B254 mice): significantly decreased
Metabolic Half-Life Human S9 (S9 stability, human): >60 min
half-life (S9 stability, human): > 60 min
Target α7 (α7): 1100 nM
Metabolic Half-Life Monkey S9 (S9 stability, monkey): >60 min
half-life (S9 stability, monkey): > 60 min
